Measured values reported in ChEMBL document CHEMBL3885881, “DrugMatrix”.

Organism: Rattus norvegicus
Test: DrugMatrix - Regimen: Daily Repeat
Assay type: toxicity, organism-based, Sprague-Dawley
Parameters: regimen Daily Repeat, gender Male, age 6-8 weeks
Conditions: in vivo, po, route oral GAVAGE, vehicle 100 % WATER; for ABSOLUTE BASOPHIL / ABSOLUTE EOSINOPHIL / ABSOLUTE LYMPHOCYTE / ABSOLUTE MONOCYTE / ABSOLUTE SEGMENTED NEUTROPHIL / BASOPHIL / EOSINOPHIL / ERYTHROCYTE COUNT / HEMATOCRIT / HEMOGLOBIN / LEUKOCYTE COUNT / LYMPHOCYTE / MEAN CORPUSCULAR HEMOGLOBIN / MEAN CORPUSCULAR HEMOGLOBIN CONCENTRATION / MEAN CORPUSCULAR VOLUME / MONOCYTE / NEUTROPHIL / NUCLEATED RED BLOOD CELLS / PLATELET COUNT: tissue Blood; for ALANINE AMINOTRANSFERASE / ALBUMIN / ALKALINE PHOSPHATASE / ASPARTATE AMINOTRANSFERASE / BLOOD UREA NITROGEN / CARBON DIOXIDE / CHLORIDE / CHOLESTEROL / CREATINE PHOSPHOKINASE / CREATININE / GLUCOSE / LACTATE DEHYDROGENASE / LIPASE / PHOSPHORUS / POTASSIUM / SODIUM / TOTAL BILIRUBIN / TOTAL PROTEIN / URIC ACID: tissue Plasma
[1] = 0 mg/kg, 72 h, dose level Control, time 3 day
[2] = 0 mg/kg, 120 h, dose level Control, time 5 day
[3] = 100 mg/kg, 72 h, dose level Low, time 3 day

## NCC1(CC(=O)O)CCCCC1 [GABAPENTIN]
[1]
  ABSOLUTE BASOPHIL: 0 CELLS/uL
  ABSOLUTE EOSINOPHIL: 133.83 CELLS/uL
  ABSOLUTE LYMPHOCYTE: 11674.67 CELLS/uL
  ABSOLUTE MONOCYTE: 65.33 CELLS/uL
  ABSOLUTE SEGMENTED NEUTROPHIL: 1559.5 CELLS/uL
  BASOPHIL: 0%
  EOSINOPHIL: 1%
  ERYTHROCYTE COUNT: 5.26 x10E6/uL
  HEMATOCRIT: 34.15%
  HEMOGLOBIN: 13.6 G/DL
  LEUKOCYTE COUNT: 13.43 x10E3/uL
  LYMPHOCYTE: 86.83%
  MEAN CORPUSCULAR HEMOGLOBIN: 25.87 pg
  MEAN CORPUSCULAR HEMOGLOBIN CONCENTRATION: 39.85 G/DL
  MEAN CORPUSCULAR VOLUME: 64.93 fL
  MONOCYTE: 0.5%
  NEUTROPHIL: 11.67%
  NUCLEATED RED BLOOD CELLS: 0.17 /100WBC
  PLATELET COUNT: 1188.5 x10E3/uL
  ALANINE AMINOTRANSFERASE: 48.5 u/L
  ALBUMIN: 4.1 G/DL
  ALKALINE PHOSPHATASE: 338.83 u/L
  ASPARTATE AMINOTRANSFERASE: 84.17 u/L
  BLOOD UREA NITROGEN: 15.17 mg/dL
  CARBON DIOXIDE: 26.83 mmol/L
  CHLORIDE: 101.33 MEQ/L
  CHOLESTEROL: 77 mg/dL
  CREATINE PHOSPHOKINASE: 600.83 u/L
  CREATININE: 0.15 mg/dL
  GLUCOSE: 161.67 mg/dL
  LACTATE DEHYDROGENASE: 222.17 u/L
  LIPASE: 10.17 u/L
  PHOSPHORUS: 12.63 mg/dL
  POTASSIUM: 6.36 MEQ/L
  SODIUM: 143.17 MEQ/L
  TOTAL BILIRUBIN: 0.17 mg/dL
  TOTAL PROTEIN: 5.65 G/DL
  URIC ACID: 1.38 mg/dL
[2]
  ABSOLUTE BASOPHIL: 0 CELLS/uL
  ABSOLUTE EOSINOPHIL: 66.5 CELLS/uL
  ABSOLUTE LYMPHOCYTE: 10848.67 CELLS/uL
  ABSOLUTE MONOCYTE: 106.17 CELLS/uL
  ABSOLUTE SEGMENTED NEUTROPHIL: 1028.67 CELLS/uL
  BASOPHIL: 0%
  EOSINOPHIL: 0.5%
  ERYTHROCYTE COUNT: 5.42 x10E6/uL
  HEMATOCRIT: 34.53%
  HEMOGLOBIN: 14.07 G/DL
  LEUKOCYTE COUNT: 12.05 x10E3/uL
  LYMPHOCYTE: 90%
  MEAN CORPUSCULAR HEMOGLOBIN: 25.98 pg
  MEAN CORPUSCULAR HEMOGLOBIN CONCENTRATION: 40.73 G/DL
  MEAN CORPUSCULAR VOLUME: 63.78 fL
  MONOCYTE: 1%
  NEUTROPHIL: 8.5%
  NUCLEATED RED BLOOD CELLS: 0 /100WBC
  PLATELET COUNT: 1256.33 x10E3/uL
  ALANINE AMINOTRANSFERASE: 55.17 u/L
  ALBUMIN: 4.3 G/DL
  ALKALINE PHOSPHATASE: 333.83 u/L
  ASPARTATE AMINOTRANSFERASE: 81.33 u/L
  BLOOD UREA NITROGEN: 15.67 mg/dL
  CARBON DIOXIDE: 30 mmol/L
  CHLORIDE: 100.67 MEQ/L
  CHOLESTEROL: 67.67 mg/dL
  CREATINE PHOSPHOKINASE: 221.33 u/L
  CREATININE: 0.16 mg/dL
  GLUCOSE: 161.33 mg/dL
  LACTATE DEHYDROGENASE: 166.83 u/L
  LIPASE: 8.33 u/L
  PHOSPHORUS: 12.63 mg/dL
  POTASSIUM: 5.98 MEQ/L
  SODIUM: 144.63 MEQ/L
  TOTAL BILIRUBIN: 0.2 mg/dL
  TOTAL PROTEIN: 6.15 G/DL
  URIC ACID: 1.17 mg/dL
[3]
  ABSOLUTE BASOPHIL: 0 CELLS/uL
  ABSOLUTE EOSINOPHIL: 86.33 CELLS/uL
  ABSOLUTE LYMPHOCYTE: 13178.33 CELLS/uL
  ABSOLUTE MONOCYTE: 43 CELLS/uL
  ABSOLUTE SEGMENTED NEUTROPHIL: 1125.67 CELLS/uL
  BASOPHIL: 0%
  EOSINOPHIL: 0.67%
  ERYTHROCYTE COUNT: 5.28 x10E6/uL
  HEMATOCRIT: 34.3%
  HEMOGLOBIN: 13.73 G/DL
  LEUKOCYTE COUNT: 14.43 x10E3/uL
  LYMPHOCYTE: 91%
  MEAN CORPUSCULAR HEMOGLOBIN: 26.1 pg
  MEAN CORPUSCULAR HEMOGLOBIN CONCENTRATION: 40.1 G/DL
  MEAN CORPUSCULAR VOLUME: 65 fL
  MONOCYTE: 0.33%
  NEUTROPHIL: 8%
  NUCLEATED RED BLOOD CELLS: 0 /100WBC
  PLATELET COUNT: 1169.33 x10E3/uL
  ALANINE AMINOTRANSFERASE: 52.33 u/L
  ALBUMIN: 4.17 G/DL
  ALKALINE PHOSPHATASE: 377.67 u/L
  ASPARTATE AMINOTRANSFERASE: 80 u/L
  BLOOD UREA NITROGEN: 14.33 mg/dL
  CARBON DIOXIDE: 27.33 mmol/L
  CHLORIDE: 103 MEQ/L
  CHOLESTEROL: 71 mg/dL
  CREATINE PHOSPHOKINASE: 245 u/L
  CREATININE: 0.17 mg/dL
  GLUCOSE: 170.67 mg/dL
  LACTATE DEHYDROGENASE: 111.67 u/L
  LIPASE: 9.67 u/L
  PHOSPHORUS: 11.67 mg/dL
  POTASSIUM: 6.11 MEQ/L
  SODIUM: 144.87 MEQ/L
  TOTAL BILIRUBIN: 0.23 mg/dL
  TOTAL PROTEIN: 5.67 G/DL
  URIC ACID: 1.6 mg/dL
